Test results reported in patent publication US20120190004A1, “METHODS AND COMPOSITIONS FOR THE CRYOPRESERVATION OF DUCKWEED” (Biolex Therapeutics, Inc., priority 2009, published 2012).

Tests used:
Test in all cases: Cryopreservation success rate after dormancy induction in sugar-supplemented medium
BAP01-B2-230 line = type: in vivo, Lemna minor
Description: (§1) Lemna minor duckweed plants were cultured on Schenk and Hildebrandt media with 20 mg/ml sucrose at an aerial temperature of between 21° C. and 30° C. and light levels ranging from […] for 1 day up to 1 year. Three frond colonies (each frond colony comprised one or more daughter fronds attached to the mother frond) were aseptically transferred into a 2.0-mL cryovial containing a 900 μL solution of Schenk and Hildebrandt media, supplemented with 15 mg/ml of each D-trehalose dihydrate, sucrose, D-sorbitol, D-raffinose pentahydrate, D-glucose, and D-mannitol for the dormancy-induction step. The frond colonies were incubated in this sugar solution for 21-30 days. Each 24-hour photoperiod was comprised of fluctuations in temperature and light levels. Specifically, the daytime hours consisted of culturing the duckweed frond colony at an aerial temperature of 10° C. with a light level of about 25 μM·M^−2·sec^−1 to about 50 μM·M^−2·sec^−1 for a duration of 3 hours, followed by an aerial temperature of 15° C. at a light level of about 25 μM·M^−2·sec^−1 to about 75 μM·M^−2·sec^−1 for a duration of 6 hours, and an aerial temperature of 10° C. with a light level of about 25 μM^−2·sec^−1 to about 50 μM·M^−2·sec^−1 for a duration of 3 hours. During the nighttime hours of the 24-hour photoperiod, the duckweed frond colonies were cultured at an aerial temperature of 4° C. in the absence of light for a duration of 12 hours.
(§2) The duckweed frond colonies were dehydrated in a laminar flow hood in 900 μL of a cryoprotective solution, comprising 1.92 M DMSO, […], 3.26 M glycerol, and 0.4 M sucrose at pH 5.8. The cryovials were incubated in this solution at 4° C. for 30 minutes to 2 hours in the absence of light. Following the incubation, the cryoprotective solution was removed and replaced with 900 μL of fresh cryoprotective solution.
(§3) The duckweed frond colonies were frozen in a slow rate freezer according to the following freezing protocol. The cryovials containing the duckweed frond colonies were held at 4° C. and the temperature was lowered to −4° C. at 1° C. per minute, to −40° C. at 25° C. per minute, and then raised to −12° C. at 10° C. per minute. The temperature was again lowered to −40° C. at 1° C. per minute, to −90° C. at 10° C. per minute, and then lowered to −150° C. at 10° C. per minute. Once frozen, the vials containing the frond colonies were transferred to the vapor phase of liquid nitrogen for storage.
(§4) After up to 17 months in storage, the frozen duckweed frond colonies were thawed and recovered as follows. The vials containing the frozen duckweed frond colonies were transferred from the liquid nitrogen storage tank to a laminar flow hood and were thawed at room temperature for approximately ten minutes. The cryoprotective solution was removed and replaced with 900 μL of Schenk and Hildebrandt medium, supplemented with 1.2 M sucrose, followed by a ten minute incubation at room temperature. The 1.2 M sucrose was subsequently diluted by a series of five dilutions whereby 450 μL of the 1.2 M sucrose solution was removed and replaced with 450 μL of Schenk and Hildebrandt medium supplemented with 20 mg/ml sucrose. Following the serial dilutions, the frond colonies were transferred to a petri dish with Schenk and Hildebrandt medium, supplemented with 10 mg/ml sucrose and 1% (weight/volume) agar. The duckweed frond colonies were cultured at an aerial temperature of between 21° C. and 30° C. with light levels ranging from about 20 μM·M^−2·sec^−1 to about 100 μM·M^−2·sec^−1 for 7-14 days prior to calculating the success rate of the cryopreservation procedure.
(§5) The cryopreservation success rate was calculated by the total number of visible daughter fronds (or daughter fronds with viable tissue) to survive the freezing process and successfully reproduce new daughter fronds as a percentage of the total number of visible daughter fronds that were frozen. […]

L. minor [1] = type: in vivo, Lemna minor
Description: as §1, §2, §3, §4, §5

Sp. polyrrhiza = type: in vivo, Spirodela polyrrhiza; settings: single sugars 90 mg/ml unless the label says 20 mg/ml, six sugar combo 15 mg/ml each
L. yungensis = type: in vivo, Lemna yungensis; settings: single sugars 90 mg/ml unless the label says 20 mg/ml, six sugar combo 15 mg/ml each
L. minor [2] = type: in vivo, Lemna minor; remark: listed apart in the source
[3] = sugars at two concentrations: 90 mg/ml (1X) and 270 mg/ml (3X), listed as Sucrose 1X
[4] = sugars at two concentrations: 90 mg/ml (1X) and 270 mg/ml (3X), listed as Sucrose 3X
[5] = various concentrations of six sugar combination: total sugar 90 (1X), 216 (2.4X), 342 mg/ml (3.8X), or 20 mg/ml sucrose

OC[C@H]1O[C@@](CO)(O[C@H]2O[C@H](CO)[C@@H](O)[C@H](O)[C@H]2O)[C@@H](O)[C@@H]1O [Sucrose, sucrose] was tested, and the Cryopreservation success rate (BAP01-B2-230 line; [3]) was 100% (16/16), the Cryopreservation success rate (BAP01-B2-230 line; [4]) was 0% (0/12) and the Cryopreservation success rate (BAP01-B2-230 line; [5]) was 60.9% (14/23). The Cryopreservation success rate (L. minor [1]; dormancy induction 21-Day, fluctuating temperature and light) was 93.75% (30/32), the Cryopreservation success rate (L. minor [1]; first set of experiments, single sugars 90 mg/ml unless the label says 20 mg/ml, six sugar combo 15 mg/ml each) was 36.8% (7/19) and the Cryopreservation success rate (L. minor [1]; second set of experiments, single sugars 90 mg/ml unless the label says 20 mg/ml, six sugar combo 15 mg/ml each) was 91.7% (11/12). For the same compound, the “Cryopreservation success, in words” value (L. minor [1]; summary of Tables 6 and 7) was “lower cryopreservation success rates”, the Cryopreservation success rate (Sp. polyrrhiza; first set of experiments) was 0% (0/10) and the Cryopreservation success rate (Sp. polyrrhiza; first set of experiments, listed as 20 mg/ml Sucrose) was 0% (0/14). For the same compound, the Cryopreservation success rate (Sp. polyrrhiza; second set of experiments) was 0% (0/12), the Cryopreservation success rate (L. yungensis; first set of experiments) was 0% and the Cryopreservation success rate (L. yungensis; second set of experiments) was 0%. The Cryopreservation success rate (L. minor [2]; dormancy induction 7-Day, 4° C. with no light) was 0% (0/28), the Cryopreservation success rate (L. minor [2]; dormancy induction 7-Day, 9-10° C. with no light) was 14.82% (4/27) and the Cryopreservation success rate (L. minor [2]; dormancy induction 7-Day, fluctuating temperature and light) was 33.3% (9/27). For the same compound, the Cryopreservation success rate (L. minor [2]; dormancy induction 7-Day, fluctuating temperature with no light) was 65.39% (17/26), the Cryopreservation success rate (L. minor [2]; dormancy induction 14-Day, 4° C. with no light) was 0% (0/22) and the Cryopreservation success rate (L. minor [2]; dormancy induction 14-Day, 9-10° C. with no light) was 73.08% (19/26). For the same compound, the Cryopreservation success rate (L. minor [2]; dormancy induction 14-Day, fluctuating temperature and light) was 96% (24/25), the Cryopreservation success rate (L. minor [2]; dormancy induction 14-Day, fluctuating temperature with no light) was 100% (24/24) and the Cryopreservation success rate (L. minor [2]; dormancy induction 21-Day, 4° C. with no light) was 4.17% (1/24). The Cryopreservation success rate (L. minor [2]; dormancy induction 21-Day, 9-10° C. with no light) was 91.67% (22/24), the Cryopreservation success rate (L. minor [2]; dormancy induction 21-Day, fluctuating temperature with no light) was 86.96% (20/23) and the Cryopreservation success rate (L. minor [2]; dormancy induction 28-Day, 4° C. with no light) was 0% (0/20). For the same compound, the Cryopreservation success rate (L. minor [2]; dormancy induction 28-Day, 9-10° C. with no light) was 97.37% (37/38), the Cryopreservation success rate (L. minor [2]; dormancy induction 28-Day, fluctuating temperature and light) was 94.29% (33/35) and the Cryopreservation success rate (L. minor [2]; dormancy induction 28-Day, fluctuating temperature with no light) was 100% (30/30). For the same compound, the Cryopreservation success rate (L. minor [2]; first set of experiments, single sugars 90 mg/ml unless the label says 20 mg/ml, six sugar combo 15 mg/ml each, listed as 20 mg/ml Sucrose) was 42.3% (11/26), the Cryopreservation success rate (L. minor [2]; second set of experiments, single sugars 90 mg/ml unless the label says 20 mg/ml, six sugar combo 15 mg/ml each, listed as 20 mg/ml Sucrose) was 43.8% (7/16) and the Cryopreservation success rate (L. minor [2]; [3]) was 88.9% (16/18). For the same compound, the Cryopreservation success rate (L. minor [2]; [4]) was 0% (0/11) and the Cryopreservation success rate (L. minor [2]; [5]) was 92.9% (26/28).
